From ChEMBL document CHEMBL1137394, “Configurationally restricted bismacrocyclic CXCR4 receptor antagonists” (J Med Chem, 2006)
The source made the active and inactive calls. The calls are words filed in the database; no cut-off is given here.

How the values were obtained:
MT4 [1] = assay: Selectivity index, EC50 against HIV1 3B/CC50 against MT4 cells; type: functional, Human immunodeficiency virus 1
MT4 [2] = assay: Cytotoxicity against human MT4 cells; type: functional
MT4 [3] = assay: Selectivity index, EC50 against HIV2 ROD/CC50 against MT4 cells; type: functional, Human immunodeficiency virus 2
[4] = tested on: Human immunodeficiency virus 2; assay: Antiviral activity against HIV2 ROD assessed as reduction in cytopathic effect in MT4 cells; type: functional, organism-based; settings: Human immunodeficiency virus 2, ROD
[5] = tested on: Human immunodeficiency virus 1; assay: Antiviral activity against HIV1 3B assessed as reduction in cytopathic effect in MT4 cells; type: functional, organism-based; settings: Human immunodeficiency virus 1, 3B
[6] = target: C-X-C chemokine receptor type 4 (Homo sapiens) (UniProt P61073); assay: Binding affinity to CXCR4 by flow cell cytometry; type: functional
Chain of C-X-C chemokine receptor type 4 (Homo sapiens) (P61073 whole entry): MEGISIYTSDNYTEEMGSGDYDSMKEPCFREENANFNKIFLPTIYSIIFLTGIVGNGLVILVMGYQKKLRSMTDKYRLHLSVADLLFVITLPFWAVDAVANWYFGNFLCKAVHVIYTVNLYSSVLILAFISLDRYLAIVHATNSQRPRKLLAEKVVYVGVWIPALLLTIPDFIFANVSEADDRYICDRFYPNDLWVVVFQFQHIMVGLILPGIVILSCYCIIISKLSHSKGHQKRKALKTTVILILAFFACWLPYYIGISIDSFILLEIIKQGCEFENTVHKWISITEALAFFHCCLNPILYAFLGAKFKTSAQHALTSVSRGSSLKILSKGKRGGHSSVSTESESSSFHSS

Question: For c1cc(CN2CCCN3CCN(CCCNCC2)CC3)ccc1CN1CCCN2CCN(CCCNCC1)CC2, which Selectivity index (MT4 [1]) is on record?
Answer: >32

Question: And the CC50 (MT4 [2])?
Answer: > 225 µM

Question: And the Selectivity index (MT4 [3])?
Answer: >10

Question: And the EC50 [4]?
Answer: 23.2 µM

Question: And the EC50 [5]?
Answer: 6.98 µM

Question: What about the Activity [6] of the same compound?
Answer: Active
